Entries after “also recorded” stand apart in the source; their conditions may differ.
Columns and labels:
[1] = Solubility observation during SAR testing; assay type: physicochemical
[2] = test system: LMNB1 in TRE-FLAG-LMNB1 MEF; assay: Primary HCS assay, LMNB1 intensity, dose-response; assay type: cell-based, mouse; conditions: DOX medium, 48 h, ten-point dose-response
TRE-FLAG-LMNB1 MEF = assay: Primary HCS assay, cell numbers; assay type: cell-based, mouse; conditions: 48 h
[3] = test system: LMNA/C in TRE-FLAG-LMNB1 MEF; assay: Primary HCS assay, LMNA/C intensity; assay type: cell-based, mouse; conditions: 48 h
[4] = test system: LMNB1 in TRE-FLAG-LMNB1 MEF; assay: Western blot of LMNB1 in TRE-FLAG-LMNB1 MEF; assay type: cell-based, mouse; conditions: 48 h, LMNB1/actin
LMNB1 = conditions: cited from earlier work
ADLD patient fibroblasts = assay: Antiproliferative activity and expanded toxicity measurements; assay type: cell-based, human; conditions: high density, two-day exposure
LMNB in HL-60 cells = conditions: cited from earlier work

SMILES | Effect on LMNB1 levels in dose-response (in words) [2] | Cellular toxicity (in words) (TRE-FLAG-LMNB1 MEF) | other results
COc1cccc(C2CC(c3ccccc3Cl)Nc3ncnn32)c1 (stereo not shown) [CID 663139] | – | – | Solubility (in words) [1]: caused solubility problems
COc1ccc(C2CC(c3ccccc3Cl)Nc3nc(N)nn32)cc1OC (stereo not shown) [CID 3154585] | limited response at the highest concentration tested | – | –
COc1ccc(C2CC(c3ccc(Cl)cc3Cl)Nc3nc(N)nn32)cc1OC (stereo not shown) [CID 3154587] | inactive | – | –
CCOc1ccccc1C1CC(c2ccccc2)Nc2nc(N)nn21 (stereo not shown) [CID 3512343] | retained some activity | – | –
O=C(NCc1ccco1)c1cc2nc(-c3ccc4c(c3)OCO4)cc(C(F)(F)F)n2n1 [MolPort-001–493–770] | very strong reduction of LMNB1, which was an artifact of image analysis | – | –
Oc1ccc(-c2nc(-c3ccncc3)c(-c3ccc(F)cc3)[nH]2)cc1 [SB202190] | dose-dependent decreases in LMNB1 levels | no or low toxicity | Effect on LMNA/C expression, selectivity (in words) [3]: selectively reduced LMNB1 over LMNA/C; Confirmation of LMNB1 reduction by Western blot (in words) [4]: concentration-dependently reduced both human-FLAG-LMNB1 and endogenous mouse LMNB1
Oc1c2ccccc2c2c3c(cccc13)N=N2 [SP600125] | dose-dependent decreases in LMNB1 levels; also recorded: maximum response with SP600125 was small and the curve not sigmoidal | no or low toxicity | Effect on LMNA/C expression, selectivity (in words) [3]: selectively reduced LMNB1 over LMNA/C; Confirmation of LMNB1 reduction by Western blot (in words) [4]: did not confirm
CCOc1ccc(N([C@@H](C)C(=O)Nc2ccc(Br)c(C)c2)S(C)(=O)=O)cc1 [UPCMLDCBRC1002139] | not tolerated | – | –
Cc1c(CNC(=O)c2nn3c(c2Cl)N[C@@H](c2ccccc2)C[C@@H]3C(F)(F)F)cnn1C [UPCMLDCBRC1040264] | abolished activity | – | –
COc1ccccc1NC(=S)N[C@@H](NC(=O)c1cccc(Br)c1)C(Cl)(Cl)Cl [UPCMLDCBRC1049772] | abolished activity | – | –
CO[C@H]1/C=C\C=C(/C)C(=O)NC2=CC(=O)C(NCCN(C)C)=C(C[C@@H](C)C[C@H](OC)[C@H](O)[C@@H](C)/C=C(\C)[C@@H]1OC(N)=O)C2=O [alvespimycin] | – | significant cellular toxicity | Effect on LMNB1 (in words) (LMNB1): reduced LMNB1
CC[C@@]1(O)C(=O)OCc2c1cc1n(c2=O)Cc2cc3ccccc3nc2-1 [camptothecin, (S)-( +)-camptothecin] | dose-dependent decreases in LMNB1 levels | cellular toxicity | Effect on cell numbers, nuclear morphology and cell size (in words) (ADLD patient fibroblasts): reduced cell numbers and caused cells to enlarge; Effect on LMNB levels (in words) (LMNB in HL-60 cells): reduce LMNB levels in HL-60 cells

Source: article PMC11873125 (Scientific Reports, 2025)
